# Results as given in US4221794A, “Method of imparting immunomodulating and antiviral activity” (Newport Pharmaceuticals International, Inc., priority 1979, dated 1980).
# “And” between values parts separate entries of the source, which are not always exact repeats. Equal values may be shown once. Read-outs that look alike come from different tables or passages of the source.
# Assays:
# [1] = system: influenza virus; assay: microbe, parasite or virus in culture; format: cell-based, influenza virus Type A/USSR 90 (HeLa cell cultures); settings: for inhibition at 100 µg/mL: read-out: % Inhibition of Hemadsorption Foci, Test Compound Conc. >100 μg/ml
# [2] = system: influenza virus; assay: Anti-influenza activity (overall); format: cell-based, several strains of A and B sub-types
# [3] = system: mouse lymphocytes; assay: Mitogen (Con A) induced mouse lymphocyte (spleen cell) proliferation; format: cell-based; settings: for Maximum Percent Change, Mitogen Induced (Con A) Mouse Lymph. Prolif.: plus = immunostimulating, minus = immunoinhibiting, 0 = neither
# Source text: The following three assay procedures are used to evaluate the ability of the test substances to modulate the activity of several classes of cells in the immune system. In these systems it is possible to identify both immunopotentiating activity (evidence by an enhancement of the parameter examined) as well as immunosuppressant activity (evidenced by an inhibition of the parameter examined).
# 1. Mitogen-Induced Mouse Spleen Cell Assay
# Mouse spleen cells contain a population of both B and T lymphocytes which can be stimulated by a number of foreign substances (e.g., plant mitogens such as Con A) to proliferate. This enhanced proliferation is an indication of enhanced cell mediated immunity. The method below describes the system used to evaluate test substances as immunopotentiators.
# Concanavalin A (Calbiochem, La Jolla, California), Lot #210073, lyophilized in NaCl, was prepared first as a 1% solution and diluted as a 2×concentration for each dilution (0.5, 1.0, 2.5 μg/ml).
# Six to eight week old male Balb/c and C3 H inbred mice were obtained from the following sources: Flow Research Animals, Inc., Dublin, Virginia; Charles River Breeding Laboratories, Wilmington, Massachusetts; Laboratory Supply Company, Indianapolis, Indiana; and Lionel Strong Foundation, San Diego, California.
# Three to five mice were sacrificed by cervical dislocation and the spleens aseptically removed. Pooled spleens were minced and teased with sterile forceps; then strained through a double layer of nylon mesh. The cell suspension was washed once with 15 ml of RPMI 1640 supplemented with 5% fetal calf serum and antibiotics. Cells were cultured at a concentration of 10^6 cells/0.1 ml/well in micro-plates. Cultures were incubated in the presence or absence of mitogen in a humidified atmosphere containing 5% CO2 for 48 hours. The test compound was added to cultures at various concentrations concommitant with mitogen.
# Proliferation was assayed by the degree of incorporation of 1.0 μCi of [^3 H] thymidine over an 18 hour incubation period. Cultures were harvested by a MASH unit (Otto Hiller Co., Madison, Wisconsin) and thymidine incorporation was assayed by liquid scintillation spectrometry. Cultures were performed in triplicate and data are expressed as means plus or minus the standard error of the experimental means. Drug stimulation indices over control values were also calculated and portrayed graphically.
# (§1) Table 4 above presents the results of an evaluation of a number of these subject compounds as potentiators of the immune response. Three different test systems were used. The first involves a measure of the ability of the test compound to enhance the ability of mouse lymphocytes to proliferate in response to a plant mitogen (Con A). The second involves measuring the ability of the test compounds to enhance human lymphocyte proliferation in response to a second plant mitogen (PHA). The third system measures the ability of these test substances to enhance macrophage proliferation in response to a natural lymphokine (MMF, Macrophage Mitogenic Factor).
# [4] = system: human peripheral blood lymphocytes; assay: Mitogen (PHA) induced human lymphocyte proliferation; format: cell-based; settings: plus = immunostimulating, minus = immunoinhibiting, 0 = neither
# [5] = system: guinea pig macrophages; assay: Lymphokine (MMF) induced guinea pig macrophage proliferation; format: cell-based; settings: plus = immunostimulating, minus = immunoinhibiting, 0 = neither
# Protocol: 3. The macrophage represents a subpopulation of white blood cells which is an important component of the immune system in control of both cellular and humoral immunity. The assay system described below evaluates the substances studied as potentiators of macrophage function.
# Phytohemagglutinin (PHA) (HA-17) was purchased from Burroughs Wellcome. A preparation containing Macrophage Mitogen Factor (MMF) and Macrophage Activating Factor (MAF) was prepared from antigen-stimulated immune lymph node lymphocytes (guinea pig) as previously described by Hadden et al, Nature 257, 483-485 (1975). […] The active fraction was employed in both the proliferation and activation assays.
# Ficoll-hypaque purified human peripheral blood lymphocytes were prepared and PHA-induced lymphocyte proliferation was assayed by the incorporation of tritiated thymidine as described in Hadden et al., Cell. Immunol. 20, 98-103 (1975). Each compound was analyzed in the presence of suboptimal, optimal and supraoptimal concentrations of PHA (0.001, 0.01, 0.1 units/ml respectively). Paraffin oil-induced guinea pig peritoneal macrophages were prepared and incubated as monolayer culture (>98% pure macrophages). Lymphokine (MMF)-induced proliferation was assayed by the incorporation of tritiated thymidine at 3 and 5 days of culture as described, Hadden et al, Nature 257, 483-485 (1975). Lymphokine (MAF)-induced macrophage activation to kill Listeria monocytogenes following 5 days of culture in the presence or absence of MAF was performed during a 6 hour period as described in Hadden and England, Immunopharmacology, pages 87-100 (Plenum Press, 1977). Phagocytosis was quantitated during a 20-minute exposure to Listeria monocytogenes by counting the number of macrophages containing bacteria and the number of bacteria per phagocytic cell on gram stained monolayers in Labtek chambers. Intracellular killing of bacteria was evaluated by counting the number of cells containing bacteria and the number of bacteria/cell 6 hours after the initial 20 minute exposure. Parallel experiments in which macrophages were lysed and intracellular bacteria were cultured confirm the validity of bacterial activity determined by this manner in this system. The drugs were employed in each of the three systems over serial log concentration range in triplicate in the presence and absence of mitogen or lymphokine. Each type of experiment was performed at least three times. Previous experiments indicate a parallelism of response to pharmacologic modulation in the proliferation and achivation assays.
# as §1
# [6] = system: Influenza A Swine 1976 (Hlsw -N1); format: cell-based; settings: listed as 15417
# [7] = 1.0-10 (unit not printed), listed as 15417
smiles,measurement,setting,value
"CC(=O)Nc1ccc(C(=O)O)cc1.CC(O)CN(C)C [compound 15110, dimethylamino-2-propanol-p-acetamido benzoate, reference compound]",% Inhibition of Hemadsorption Foci,[1],0%
CC(CO)n1cnc2c(=O)[nH]cnc21 (stereo not shown) [NPT 15444],% Inhibition of Hemadsorption Foci,"[1]; Test Compound Conc. >100 μg/ml, listed as 15444",54%
same,potentiation of anti-influenza activity by DIP.PAcBA salt,[2],Yes
"CC(CO)n1cnc2c(=O)[nH]cnc21 (stereo not shown) [NPT 15443, 9-(1-HYDROXY-2-PROPYL)HYPOXANTHINE]","Maximum Percent Change, Mitogen Induced (Con A) Mouse Lymph. Prolif.",[3]; 1.0-10 (unit not given),+27%
same,"Maximum Percent Change, Mitogen Induced (Con A) Mouse Lymph. Prolif.",[3]; 10-100 (unit not given),+27%
same,"Maximum Percent Change, Mitogen Induced (Con A) Mouse Lymph. Prolif.",[3]; .01-1.0 (unit not given),+17%
same,"Maximum Percent Change, Mitogen Induced (PHA) Human Lymph. Prolif.",[4]; 1.0-10 (unit not given),+13%
same,"Maximum Percent Change, Mitogen Induced (PHA) Human Lymph. Prolif.",[4]; 10-100 (unit not given),0%
same,"Maximum Percent Change, Mitogen Induced (PHA) Human Lymph. Prolif.",[4]; .01-1.0 (unit not given),0%
same,% Inhibition of Hemadsorption Foci,"[1]; Test Compound Conc. >100 μg/ml, listed as 15443",0%
same,"Maximum Percent Change, Lymphokine Induced (MMF) Guinea Pig Mac. Prolif.",[5]; 1.0-10 (unit not given),0%
same,"Maximum Percent Change, Lymphokine Induced (MMF) Guinea Pig Mac. Prolif.",[5]; .01-1.0 (unit not given),+20%
OCCn1cnc2c(S)ncnc21 [NPT 15437],inhibition at 100 µg/mL,[1]; unidentified influenza virus,65%
same,potentiation of anti-influenza activity by DIP.PAcBA salt,[2],Yes
CC(CO)n1cnc2c(N)ncnc21 (stereo not shown) [NPT 15434],% Inhibition of Hemadsorption Foci,"[1]; Test Compound Conc. >100 μg/ml, listed as 15434",62%
same,potentiation of anti-influenza activity by DIP.PAcBA salt,[2],Yes
CCCCCCC(CO)n1cnc2c(=O)[nH]cnc21 (stereo not shown) [NPT 15417],% Inhibition,[6],50-70% and > 70%
same,"% Stimulation, Mitogen Induced Murine Lymphocyte Proliferation","[3]; 01-1.0 μg/ml, listed as 15417",0%
same,"% Stimulation, Mitogen Induced Murine Lymphocyte Proliferation","[3]; 1.0-10 μg/ml, listed as 15417",0%
same,"Maximum Percent Change, Mitogen Induced (Con A) Mouse Lymph. Prolif.",[3]; [7],0%
same,"% Stimulation, Mitogen Induced Murine Lymphocyte Proliferation","[3]; 10-100 μg/ml, listed as 15417",0%
same,"Maximum Percent Change, Mitogen Induced (Con A) Mouse Lymph. Prolif.","[3]; 10-100 (unit not printed), listed as 15417",0%
same,"Maximum Percent Change, Mitogen Induced (Con A) Mouse Lymph. Prolif.","[3]; .01-1.0 (unit not printed), listed as 15417",0%
same,"% Stimulation, Mitogen Induced Murine Lymphocyte Proliferation",[3]; >100 μg/ml,0%
same,"Maximum Percent Change, Mitogen Induced (PHA) Human Lymph. Prolif.",[4]; 1.0-10 (unit not given),0%
same,"Maximum Percent Change, Mitogen Induced (PHA) Human Lymph. Prolif.",[4]; 10-100 (unit not given),-50%
same,"Maximum Percent Change, Mitogen Induced (PHA) Human Lymph. Prolif.",[4]; .01-1.0 (unit not given),0%
same,inhibition at 10 µg/mL,"[1]; unidentified influenza virus, read-out: % Inhibition of Hemadsorption Foci, Test Compound Conc. <10 μg/ml",18%
same,inhibition at 100 µg/mL,[1]; unidentified influenza virus,60%
same,anti-influenza activity (in words),[2]; compound by itself,significant anti-influenza activity
same,inhibit the replication of different strains of influenza virus (number of strains),[2]; concentrations ranging from 1-150 μg/ml,at least 4 different strains
same,"Maximum Percent Change, Lymphokine Induced (MMF) Guinea Pig Mac. Prolif.",[5]; [7],13%
same,"Maximum Percent Change, Lymphokine Induced (MMF) Guinea Pig Mac. Prolif.",[5]; 10-100 (unit not given),-50%
OCCn1cnc2c(=S)[nH]cnc21 [NPT 15435],"Maximum Percent Change, Mitogen Induced (PHA) Human Lymph. Prolif.",[4]; 1.0-10 (unit not given),45%
same,"Maximum Percent Change, Mitogen Induced (PHA) Human Lymph. Prolif.",[4]; 10-100 (unit not given),-50%
same,"Maximum Percent Change, Mitogen Induced (PHA) Human Lymph. Prolif.",[4]; .01-1.0 (unit not given),55%
same,inhibition at 100 µg/mL,[1]; unidentified influenza virus,10%
